Source: patent US9586951B2 (FUJIFILM Corporation, priority 2013, dated 2017)

target: T1, ATM (Homo sapiens, UniProt Q13315); experiment: ATM inhibition test (phosphorylation of Chk2 generated by ionizing radiation, AlphaScreen SureFire); format: cell-based; conditions: phosphorylated Chk2 in NCI-H460 cells, ionizing radiation 8Gy, 1 hour after test compound treatment; read-out: ATM inhibitory activity
T1 construct: detecting phosphorylation of Chk2 in a human non-small cell lung cancer cell line NCI-H460 (ATCC company); host or cells: NCI-H460 human non-small cell lung cancer cells
Procedure, shortened: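 In NCI-H460 cells, radiation-triggered Chk2 phosphorylation (8Gy, 1 h) is detected by AlphaScreen SureFire following 1 h compound exposure.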

T1 sequence (Q13315 whole entry): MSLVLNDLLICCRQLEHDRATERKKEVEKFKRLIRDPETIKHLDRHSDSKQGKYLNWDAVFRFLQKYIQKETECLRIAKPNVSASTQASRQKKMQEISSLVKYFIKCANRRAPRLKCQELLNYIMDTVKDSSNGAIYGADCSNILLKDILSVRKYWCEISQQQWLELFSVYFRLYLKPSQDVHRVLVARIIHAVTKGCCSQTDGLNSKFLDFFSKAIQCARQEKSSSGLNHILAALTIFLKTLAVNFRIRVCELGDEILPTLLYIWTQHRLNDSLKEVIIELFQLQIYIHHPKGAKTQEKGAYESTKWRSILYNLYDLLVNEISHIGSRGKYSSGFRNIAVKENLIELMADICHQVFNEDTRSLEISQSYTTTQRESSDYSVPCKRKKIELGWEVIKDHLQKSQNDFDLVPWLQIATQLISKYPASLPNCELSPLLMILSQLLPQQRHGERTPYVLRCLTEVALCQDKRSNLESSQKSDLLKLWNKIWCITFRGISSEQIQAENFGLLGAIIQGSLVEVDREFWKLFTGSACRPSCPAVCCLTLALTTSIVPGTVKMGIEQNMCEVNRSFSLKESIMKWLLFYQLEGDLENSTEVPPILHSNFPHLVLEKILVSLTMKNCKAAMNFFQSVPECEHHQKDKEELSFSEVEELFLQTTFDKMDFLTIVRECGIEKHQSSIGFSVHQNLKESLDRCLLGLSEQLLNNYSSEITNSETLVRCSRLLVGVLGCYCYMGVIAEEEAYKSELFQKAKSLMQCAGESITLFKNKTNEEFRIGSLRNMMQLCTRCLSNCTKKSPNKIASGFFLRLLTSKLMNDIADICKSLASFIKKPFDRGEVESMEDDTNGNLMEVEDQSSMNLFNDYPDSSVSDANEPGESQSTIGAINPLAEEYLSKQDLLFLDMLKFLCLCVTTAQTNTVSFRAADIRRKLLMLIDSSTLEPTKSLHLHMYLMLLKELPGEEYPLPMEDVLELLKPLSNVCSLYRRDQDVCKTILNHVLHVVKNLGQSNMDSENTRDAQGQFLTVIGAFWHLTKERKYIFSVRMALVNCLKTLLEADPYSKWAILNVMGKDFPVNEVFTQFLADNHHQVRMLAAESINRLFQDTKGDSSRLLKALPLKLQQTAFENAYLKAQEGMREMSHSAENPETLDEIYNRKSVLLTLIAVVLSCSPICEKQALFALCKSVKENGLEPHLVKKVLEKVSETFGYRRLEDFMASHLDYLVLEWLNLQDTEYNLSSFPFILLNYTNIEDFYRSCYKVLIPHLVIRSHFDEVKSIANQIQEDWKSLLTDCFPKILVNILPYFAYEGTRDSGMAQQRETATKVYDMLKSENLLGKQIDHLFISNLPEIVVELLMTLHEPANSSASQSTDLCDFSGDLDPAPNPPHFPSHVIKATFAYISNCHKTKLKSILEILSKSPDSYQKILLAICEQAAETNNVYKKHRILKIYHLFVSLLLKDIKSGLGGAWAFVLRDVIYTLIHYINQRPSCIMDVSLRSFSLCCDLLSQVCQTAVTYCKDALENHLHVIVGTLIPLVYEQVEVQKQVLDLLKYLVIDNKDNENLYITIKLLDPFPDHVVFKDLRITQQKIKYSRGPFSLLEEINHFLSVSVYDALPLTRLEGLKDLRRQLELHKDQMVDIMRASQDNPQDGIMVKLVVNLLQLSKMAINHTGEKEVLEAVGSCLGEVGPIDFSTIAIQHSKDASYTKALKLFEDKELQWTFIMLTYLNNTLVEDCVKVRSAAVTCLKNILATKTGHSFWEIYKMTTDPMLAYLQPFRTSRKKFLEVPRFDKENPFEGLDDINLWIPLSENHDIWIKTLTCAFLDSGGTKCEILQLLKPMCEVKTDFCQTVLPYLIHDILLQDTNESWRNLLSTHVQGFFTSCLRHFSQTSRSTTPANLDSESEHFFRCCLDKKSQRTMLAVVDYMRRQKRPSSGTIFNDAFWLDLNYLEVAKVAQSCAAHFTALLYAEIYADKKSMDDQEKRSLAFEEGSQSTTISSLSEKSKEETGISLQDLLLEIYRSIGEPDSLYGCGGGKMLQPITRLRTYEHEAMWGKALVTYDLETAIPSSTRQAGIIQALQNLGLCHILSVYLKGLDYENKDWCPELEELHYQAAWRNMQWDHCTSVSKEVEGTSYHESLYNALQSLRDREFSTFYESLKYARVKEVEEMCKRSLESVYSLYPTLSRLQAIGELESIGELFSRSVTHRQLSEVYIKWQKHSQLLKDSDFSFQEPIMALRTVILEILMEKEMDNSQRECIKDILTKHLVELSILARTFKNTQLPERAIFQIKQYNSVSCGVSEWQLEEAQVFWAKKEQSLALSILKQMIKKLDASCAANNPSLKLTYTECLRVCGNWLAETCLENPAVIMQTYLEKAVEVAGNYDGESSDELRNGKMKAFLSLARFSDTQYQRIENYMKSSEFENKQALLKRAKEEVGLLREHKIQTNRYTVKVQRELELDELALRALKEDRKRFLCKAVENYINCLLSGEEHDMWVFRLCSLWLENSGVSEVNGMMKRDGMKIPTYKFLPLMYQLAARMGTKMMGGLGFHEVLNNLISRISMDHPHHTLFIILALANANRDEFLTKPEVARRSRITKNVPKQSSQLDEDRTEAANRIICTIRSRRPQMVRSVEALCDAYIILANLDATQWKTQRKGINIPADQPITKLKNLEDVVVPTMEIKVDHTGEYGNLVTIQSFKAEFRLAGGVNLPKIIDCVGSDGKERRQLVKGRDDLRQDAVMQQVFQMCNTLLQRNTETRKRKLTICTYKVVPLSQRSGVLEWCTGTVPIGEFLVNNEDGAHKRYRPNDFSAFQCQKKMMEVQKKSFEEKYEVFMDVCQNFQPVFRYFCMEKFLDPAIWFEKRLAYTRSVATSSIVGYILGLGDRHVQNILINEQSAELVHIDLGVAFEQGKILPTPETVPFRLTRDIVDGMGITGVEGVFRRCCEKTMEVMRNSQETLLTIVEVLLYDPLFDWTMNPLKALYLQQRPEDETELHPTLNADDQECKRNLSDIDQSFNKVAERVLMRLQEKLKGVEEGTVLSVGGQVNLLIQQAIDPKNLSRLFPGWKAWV

SMILES | IC50 [µM]
CN1CC(CNc2ccc3c(c2)Sc2cccc(-c4cc(N5CCOCC5)cc(=O)[nH]4)c2S3)C1 [Example 1-2-1, 6-(7-(((1-methylazetidin-3-yl)methyl)amino)thianthren-1-yl)-4-morpholinopyridin-2(1H)-one] | 0.1 to 0.5
CN(C)[C@H](CNc1ccc2c(c1)Sc1cccc(-c3cc(N4CCOCC4)cc(=O)[nH]3)c1S2)Cc1ccccc1 [Example 1-2-2, (S)-6-(7-((2-(dimethylamino)-3-phenylpropyl)amino)thianthren-1-yl)-4-morpholinopyridin-2(1H)-one] | 0.1 to 0.5
CN1CCC[C@H]1CNc1ccc2c(c1)Sc1cccc(-c3cc(N4CCOCC4)cc(=O)[nH]3)c1S2 [Example 1-3, (S)-6-(7-(((1-methylpyrrolidin-2-yl)methyl)amino)thianthren-1-yl)-4-morpholinopyridin-2(1H)-one] | 0.1 to 0.5
CN[C@@H](Cc1ccccc1)C(=O)Nc1ccc2c(c1)Sc1cccc(-c3cc(N4CCOCC4)cc(=O)[nH]3)c1S2 [Example 1-4, (S)-2-(methylamino)-N-(6-(4-morpholino-6-oxo-1,6-dihydropyridin-2-yl)thianthren-2-yl)-3-phenyl propanamide] | 0.1 to 0.5
O=c1cc(N2CCOCC2)cc(-c2cccc3c2Sc2ccc(NCCc4cccnc4)cc2S3)[nH]1 [Example 1-5, 4-morpholino-6-(7-((2-(pyridin-3-yl)ethyl)amino)thianthren-1-yl)pyridin-2(1H)-one] | 0.1 to 0.5
CCC(C(=O)Nc1ccc2c(c1)Sc1cccc(-c3cc(N4CCOCC4)cc(=O)[nH]3)c1S2)N1CCCC1 (stereo not drawn) [Example 1-6-1, N-(6-(4-morpholino-6-oxo-1,6-dihydropyridin-2-yl)thianthren-2-yl)-2-(pyrrolidin-1-yl)butanamide] | 0.1 to 0.5
CCC(C(=O)Nc1ccc2c(c1)Sc1cccc(-c3cc(N4CCOCC4)cc(=O)[nH]3)c1S2)N1CCOCC1 (stereo not drawn) [Example 1-6-2, 2-Morpholino-N-(6-(4-morpholino-6-oxo-1,6-dihydropyridin-2-yl)thianthren-2-yl)butanamide] | 0.1 to 0.5
CN(C)CC(=O)Nc1ccc2c(c1)Sc1cccc(-c3cc(N4CCOCC4)cc(=O)[nH]3)c1S2 [Example 1-7-1, 2-(dimethylamino)-N-(6-(4-morpholino-6-oxo-1,6-dihydropyridin-2-yl)thianthren-2-yl)acetamide] | 0.5 to 2
O=C(CN1C2CCC1COC2)Nc1ccc2c(c1)Sc1cccc(-c3cc(N4CCOCC4)cc(=O)[nH]3)c1S2 [Example 1-7-2, 2-(3-Oxa-8-azabicyclo[3.2.1]octan-8-yl)-N-(6-(4-morpholino-6-oxo-1,6-dihydropyridin-2-yl)thianthren-2-yl)acetamide] | 0.1 to 0.5
O=C(CN1CCCOCC1)Nc1ccc2c(c1)Sc1cccc(-c3cc(N4CCOCC4)cc(=O)[nH]3)c1S2 [Example 1-7-3, N-(6-(4-morpholino-6-oxo-1,6-dihydropyridin-2-yl)thianthren-2-yl)-2-(1,4-oxazepan-4-yl)acetamide] | 0.5 to 2
O=C(CN1CCOCC1)Nc1ccc2c(c1)Sc1cccc(-c3cc(N4CCOCC4)cc(=O)[nH]3)c1S2 [Example 1-7-4, 2-Morpholino-N-(6-(4-morpholino-6-oxo-1,6-dihydropyridin-2-yl)thianthren-2-yl)acetamide] | 0.1 to 0.5
CC(C(=O)Nc1ccc2c(c1)Sc1cccc(-c3cc(N4CCOCC4)cc(=O)[nH]3)c1S2)N1CCOCC1 (stereo not drawn) [Example 1-8, 2-Morpholino-N-(6-(4-morpholino-6-oxo-1,6-dihydropyridin-2-yl)thianthren-2-yl)propanamide] | 0.5 to 2
CCC(CNc1ccc2c(c1)Sc1cccc(-c3cc(N4CCOCC4)cc(=O)[nH]3)c1S2)N1CCOCC1 (stereo not drawn) [Example 1-9-1, 4-morpholino-6-(7-((2-morpholinobutyl)amino)thianthren-1-yl)pyridin-2(1H)-one] | 0.1 to 0.5

More lines, now with the values ahead:

IC50 [µM] | SMILES
< 0.1 | Cc1ccc(C(CCN2CCN(C)CC2)Nc2ccc3c(c2)Sc2cccc(-c4cc(N5CCOCC5)cc(=O)[nH]4)c2S3)nc1 (single isomer, unassigned) [Example 10-3-1, 6-(7-((3-(4-Methylpiperazin-1-yl)-1-(5-methylpyridin-2-yl)propyl)amino)thianthren-1-yl)-4-morpholino pyridin-2 (1H)-one]
< 0.1 | Cc1cnc(C(CCN2CCN(C)CC2)Nc2ccc3c(c2)Sc2cccc(-c4cc(N5CCOCC5)cc(=O)[nH]4)c2S3)cn1 (single isomer, unassigned) [Example 10-3-2, 6-(7-((3-(4-Methylpiperazin-1-yl)-1-(5-methylpyrazin-2-yl)propyl)amino)thianthren-1-yl)-4-rnorpholino pyridin-2 (1H)-one]
< 0.1 | COCCN(C)CCC(Nc1ccc2c(c1)Sc1cccc(-c3cc(N4CCOCC4)cc(=O)[nH]3)c1S2)c1ccc(C)cn1 (single isomer, unassigned) [Example 10-3-3, 6-(7-((3-((2-Methoxyethyl) (methyl)amino)-1-(5-methylpyridin-2-yl)propyl)amino)thiarnthren-l-yl)-4-morpholino pyridin-2(1H)-one]
< 0.1 | COCCN(C)CCC(Nc1ccc2c(c1)Sc1cccc(-c3cc(N4CCOCC4)cc(=O)[nH]3)c1S2)c1cnc(C)cn1 (single isomer, unassigned) [Example 10-3-4, 6-(7-((3-((2-Methoxyethyl) (methyl)amino)-1-(5-methylpyrazin-2-yl)propyl)amino)thianthren-1-yl)-4-morpholino pyridin-2(1H)-one]
< 0.1 | Cc1ccc(C(Nc2ccc3c(c2)Sc2cccc(-c4cc(N5CCOCC5)cc(=O)[nH]4)c2S3)C2CCN(C)C2)nc1 (single isomer, unassigned) [Example 10-3-5]
< 0.1 | Cc1cnc(C(CCN(C)CCF)Nc2ccc3c(c2)Sc2cccc(-c4cc(N5CCOCC5)cc(=O)[nH]4)c2S3)cn1 (single isomer, unassigned) [Example 10-3-6, 6-(7-((3-((2-Fluoroethyl) (methyl)amino)-1-(5-methylpyrazin-2-yl)propyl)amino)thianthren-1-yl)-4-morpholino pyridin-2(1H)-onc]
< 0.1 | Cc1ccc(C(CCN(C)CCO)Nc2ccc3c(c2)Sc2cccc(-c4cc(N5CCOCC5)cc(=O)[nH]4)c2S3)nc1 (single isomer, unassigned) [Example 10-4-1, 6-(7-((3-((2-Hydroxyethyl)(methyl)amino)-1-(5-methylpyridin-2-yl)propyl)amino)thianthren-1-yl)-4-morpholinopyridin-2(1H)-one]
0.1 to 0.5 | Cc1cnc(C(CCN(C)CCO)Nc2ccc3c(c2)Sc2cccc(-c4cc(N5CCOCC5)cc(=O)[nH]4)c2S3)cn1 (single isomer, unassigned) [Example 10-4-2, 6-(7-((3-((2-Hydroxyethyl)(methyl)amino)-1-(5-methylpyrazin-2-yl)propyl)amino)thianthren-1-yl)-4-morpholinopyridin-2(1H)-one]
< 0.1 | Cc1ccc(C(CCN(C)CCN(C)C)Nc2ccc3c(c2)Sc2cccc(-c4cc(N5CCOCC5)cc(=O)[nH]4)c2S3)nc1 (single isomer, unassigned) [Example 10-5-1, 6-(7-((3-((2-(Dimethylamino)ethyl)(methyl)amino)-1-(5-methylpyridin-2-yl)propyl)amino)thianthren-1-yl)-4-morpholinopyridin-2(1H)-one]
0.1 to 0.5 | Cc1ccc(C(CCN(C)CCCN(C)C)Nc2ccc3c(c2)Sc2cccc(-c4cc(N5CCOCC5)cc(=O)[nH]4)c2S3)nc1 (single isomer, unassigned) [Example 10-5-2, 6-(7-((3-((3-(Dimethylamino)propyl)(methyl)amino)-1-(5-methylpyridin-2-yl)propyl)amino)thianthren-1-yl)-4-morpholinopyridin-2(1H)-one]
< 0.1 | Cc1cnc(C(CCN(C)C)Nc2ccc3c(c2)Sc2cccc(-c4cc(N5CCOCC5)cc(=O)[nH]4)c2O3)cn1 (single isomer, unassigned) [Example 10-7, 6-(8-((3-(Dimethylamino)-1-(5-methylpyrazin-2-yl)propyl)amino)phenoxathiin-4-yl)-4-morpholinopyridin-2(1H)-one]
< 0.1 | Cc1cnc(C(CCN(C)C)Nc2ccc3c(c2)Sc2cccc(-c4cc(=O)cc(N5CCOCC5)o4)c2S3)cn1 (single isomer, unassigned) [Example 10-8, 2-(7-((3-(dimethylamino)-1-(5-methylpyrazin-2-yl)propyl)amino)thianthren-1-yl)-6-morpholino-4H-pyran-4-one]
< 0.1 | Cc1cnc(C(CCN(C)C)Nc2ccc3c(c2)Sc2cccc(-c4cc(=O)cc(N5CCOCC5)o4)c2O3)cn1 (single isomer, unassigned) [Example 10-9, 2-(8-((3-(Dimethylamino)-1-(5-methylpyrazin-2-yl)propyl)amino)phenoxathiin-4-yl)-6-morpholino-4H-pyran-4-one]
0.1 to 0.5 | Cc1ccc(C(C[C@@H]2CCCN2)Nc2ccc3c(c2)Sc2cccc(-c4cc(N5CCOCC5)cc(=O)[nH]4)c2S3)nc1 (single isomer, unassigned) [Example 12-1]
0.1 to 0.5 | Cc1ccc(C(C[C@@H]2CCCN2C)Nc2ccc3c(c2)Sc2cccc(-c4cc(N5CCOCC5)cc(=O)[nH]4)c2S3)nc1 (single isomer, unassigned) [Example 12-2]
< 0.1 | Cc1cnc(C(CCN(C)C)Nc2ccc3c(c2)Cc2cccc(-c4cc(N5CCOCC5)cc(=O)[nH]4)c2O3)cn1 (single isomer, unassigned) [Example 12-4, 6-(7-((3-(Dimethylamino)-1-(5-methylpyrazin-2-yl)propyl)amino)-9H-xanthen-4-yl)-4-morpholinopyridin-2(1H)-one]
0.1 to 0.5 | Cc1cnc(C(CCN(C)C)Nc2ccc3c(c2)Cc2cccc(-c4cc(=O)cc(N5CCOCC5)o4)c2O3)cn1 (single isomer, unassigned) [Example 12-6, 2-(7-((3-(Dimethylamino)-1-(5-methylpyrazine-2-yl)propyl)amino)-9H-xanthen-4-yl)-6-morpholino-4H-pyran-4-one]
